Where two headings read alike, the source gives them in different places. *1 amine or outer side, *2 acyl side, *3 side chain or, on linkers, in order; H or OH if unused. Where a SMILES comes first, the peptide text is derived from it. Bridges are numbered along the chain shown (N, C = ends). [ ]: non-standard residue; d: D form. The star is where a group is joined. 5FAM = O=C1OC2(c3ccc(O)cc3Oc3cc(O)ccc32)c2ccc(C(=O)*)cc21; Biotin = O=C1N[C@H]2[C@H](CS[C@H]2CCCCC(=O)*)N1; Palmitoleoyl = CCCCCC/C=C\CCCCCCCC(=O)*; Glutaryl = O=C(CCCC(=O)[*:2])[*:1]; NMeNva = CCC[C@H](NC)C(=O)O; NMeA = CN[C@@H](C)C(=O)O
Experiments:
[1] = Human serum digests; assay type: in vitro ADME; details: reconstituted human serum, 37° C
Procedure: (§1) Delipidated/lyophilized human serum was purchased from Thermo Scientific and reconstituted as per manufacturer's instructions. 250 nmoles of peptide in 50 μLs of sodium phosphate buffer (pH=8.0) with 10% DMSO was added to 1 mL of reconstituted serum and incubated at 37° C. 100 μL aliquots were taken at various time points and quenched in 300 μLs of acetonitrile. Samples were spun down and decanted to remove precipitate followed by dilution in water to 1.5 mLs. Samples were then analyzed by HPLC as described in the protease resistance experiment.
as §1, with “μL” for “μLs”, “mLs.” for “mLs. Samples were then analyzed by HPLC as described in the protease resistance experiment.”
The human serum and human microsome stability of the Gαi1 binding SUPR peptide ([…] (SEQ ID NO: 7)) were compared to the peptides ability to bind to Her-2. Beginning with the human serum analysis, peptides were digested with 95% human serum at 37° C. Analysis was performed by HPLC. […] Therefore, intact peptide is only completely unmodified peptide. Digestions of SUPR, HMP, and PMP are show have lives very similar to SUPR. Digestion of PMP2 is in progress. Without being bound by theory, Applicants theorize that the fitting for HMP may have produced an artificially low half-life.

[2] = system: blood sugar; assay: Blood glucose response to insulin; assay type: in vivo, C57BL6 mice; details: oral gavage, 7 nmol/kg
Procedure: Experimental procedure followed previously published protocols with slight modification, see e.g., (McKern, N. M., et al. (2006) Nature 443:218; Schïffer, L., et al (2003) PNAS 100:4435). Briefly, C57BL6 mice (4 in each group) fasted overnight and were anesthetized using isoflurane prior to taking blood samples by orbital bleeding. Mice were dosed with insulin or biotinylated insulin at a concentration of 3.5 nmol/kg by IV injection into the tail vein. […] In all cases, insulin was in 150 μL of 50 mM sodium phosphate buffer (pH=8.0). Blood was analyzed on a standard Clarity Plus blood glucose meter (VWR). Readings were normalized to a T=0 blood sugar measurement, and analyzed on Graphpad 5.0.
Reacting human insulin with biotin-NHS produced three distinct products that can be separated by HPLC. […] Calceti, P. et al. (2004) European Journal of Pharmaceutical Sciences 22:315; and Tuesca, A., et al. (2009) Pharmaceutical Research 26:727.
Biotinylated insulin and insulin were fed to mice by oral gavage. […] The longer duration of response is likely due to the kinetics of absorption by the intestinal mucosa.

[3] = design: species or system C57BL6 mice; details: mouse, in vivo; for bioavailability / oral uptake efficiency: 10 mg/kg
Procedure: The following peptides were synthesized for oral administration: […](FAM) (SEQ ID NO: 14), […](FAM)DK(Palmitoleic acid) (SEQ ID NO: 15), and […](FAM) (SEQ ID NO: 16), wherein FAM is a lysine derivative containing fluorescein. All peptides were cyclized from the side chain to lysine to the N-terminus as previously described. Anesthetized C57BL6 mice had peptide administered at a dose of 10 mg/kg by oral gavage. After administration, mice were removed from isoflurane. At various time points, blood samples were taken by orbital bleeding as previously described. Peaks were normalized to a 15 minute time point from mice that had peptide administered by IV injection.
The following peptides were synthesized for oral administration: […](FAM) (SEQ ID NO: 14), […](FAM) (SEQ ID NO: 16), […](FAM)DK(biotin) (SEQ ID NO: 38), and […](FAM)DK(Palmitoleic acid) (SEQ ID NO: 15). All peptides were cyclized from the side chain to lysine to the N-terminus as previously described in Millward, S. W. et al. (2007) ACS Chem. Biol. 2:625. Anesthetized C57BL6 mice had peptide administered at a dose of 10 mgs/Kg by oral gavage. After administration, mice were removed from isoflurane. At various time points, blood samples were taken by orbital bleeding as previously described. Peaks were normalized to a 20 minute time point from mice that had peptide administered by IV injection. Area under the curve was analyzed by Graphpad 5.0.
In addition to accessing intracellular targets in cell culture, deriving a simple modification that would facilitate oral bioavailability of peptidic ligands would be greatly beneficial for therapeutic development. Intestinal absorption of both fatty acids and biotin is nearly 100% efficient. Zempleni, J. and Mock, D. M. (1999) The American Journal of Clinical Nutrition 69:504. […] Applicants synthesized a protease resistant peptide with the sequence […]-mod (designated SUPR peptide) (SEQ ID NO: 50), where A is N-methyl alanine, the peptide is cyclized from lysine to the N-terminus, and K(mod) is lysine with a modified sidechain including either biotin or palmitoleic acid. Palmitoleic acid is a monounsaturated fatty acid chosen for its ability to bind human serum albumin, and its low melting point allowing for more favorable solubility of conjugated peptides as compared to […] fatty acid conjugates. This peptide was administered to mice at a dose of 10 mg/kg by oral gavage. At various time points, blood was taken from the mice by orbital bleeding. After processing, fluorescence was quantified and compared to the maximum signal obtained by IV injection of peptide at the same dose.

[4] = mouse, in vivo, iv, 10 mg/kg
Procedure: (§2) 200 μL of peptide was administered by IV injection into the tail vein of C57BL6 mice at a dose of 10 mg/kg. 50 μL blood samples were taken at various time points by orbital bleeding using heparin coated capillary tubes and isoflurane for anesthesia. Samples are diluted to 600 μLin TE buffer (pH=8.0) then filtered by centrifugation through a 3000 MWCO filter. The flowthrough was analyzed on a Shimadzu RF-5301 PC fluorometer. Time points were integrated and analyzed using Prism 5.0 software.
(§3) To that end mice were administered peptide conjugated to fluorescein by IV injection into the tail vein. Blood samples were taken by orbital bleeding. Blood peptide concentration was determined by comparing fluorescence to a 15 minute time point.

[5] = mouse, iv
Procedure: as §2, §3

[6] = system: SKBR-3 cells; assay type: cell-based, human
Procedure: Proliferation was measured by standard BrdU cell proliferation assay (Calbiochem). Cell lines were plated in 96-well plates (20,000 cells/well) in D-10 media with indicated amount of peptide with 2% DMSO, and incubated overnight. The BrdU compound was given to the cells for 2 hrs. Following the manufacturer's protocol, samples were analyzed by UV absorbance measurements at 450 nm. Peptide signal was normalized to cells incubated with 2% DMSO but no peptide. IC50 data was generated by fitting the data to a drug response equation (Log(drug) vs. Response, GraphPad Prism 5.0).
The peptides were then screened for function using a standard in vitro assays used to test efficacy of Her-2 targeting molecules. The assay involved analyzing a molecule's ability to inhibit proliferation in cell culture. A widely used kit is the BrdU cell proliferation assay. In this assay, cells are incubated with the molecule of interest before having their media supplemented with a bromodeoxyuridine. Bromodeoxyuridine is incorporated into the DNA of proliferating cells. DNA with this modified base is recognized with an antibody, and quantitated by ELISA. Applicants tested the peptides and compared them with their parental molecules.

[7] = cited from earlier work; for oral bioavailability: as known in the field
[8] = b
Description: Table printed on a drawing sheet, FIGURES 5A and 5B
FIG. 5A is Vmax for chymotrypsin digestion of cycGIBP(•), linSUPR(♦), and cycSUPR(▪). A close up of linSUPR and cycSUPR is embedded in the Figure to show the data in more detail. FIG. 5B is a Table showing values for Km and Vmax as derived by processing the data through Graphpad Prism 5.0. Both Km and Vmax are highly optimized for protease resistance in cycSUPR peptide when compared to cycGIBP.
First reader's note: Km and Vmax are kinetic parameters of chymotrypsin digestion of the peptides (protease stability); the sheet prints no unit for Km.

Q: Which half-life [1] does the source give for `CC[C@H](C)[C@H](NC(=O)[C@@H](N)CCSC)C(=O)N[C@H](C(=O)N[C@@H](Cc1c[nH]c2ccccc12)C(=O)N[C@@H](Cc1ccc(O)cc1)C(=O)N[C@@H](CCC(=O)O)C(=O)N[C@@H](Cc1ccccc1)C(=O)N[C@H](C(=O)N[C@@H](C)C(=O)NCC(=O)N[C@H](C(=O)N[C@@H](CCCCN)C(N)=O)[C@@H](C)O)C(C)C)[C@@H](C)O` [linGIBP, reference compound] (H-MITWYEFVAGTK-NH2) here?
A: ~8.4 min

Q: Which “effect on blood sugar” value [2] does the source give for “biotinylated insulin: human insulin singly biotinylated on the N-terminus of the B-chain” here?
A: produced a typical insulin response

Q: With `CSCC[C@H](N)C(=O)N[C@@H](Cc1ccccc1)C(=O)N[C@@H](Cc1ccc(O)cc1)C(=O)N(C)[C@@H](C)C(=O)N[C@@H](Cc1ccc(O)cc1)C(=O)N[C@@H](CCC(=O)O)C(=O)N[C@@H](Cc1ccc(O)cc1)C(=O)N(C)[C@@H](C)C(=O)N[C@@H](CCC(N)=O)C(=O)N[C@@H](Cc1c[nH]c2ccccc12)C(=O)N[C@@H](CO)C(=O)N[C@@H](CCCCN)C(N)=O` [linSUPR] as the compound, how does the half-life [1] read?
A: 16.2 min

Q: With `CSCC[C@@H]1NC(=O)CCCC(=O)NCCCC[C@@H](C(=O)N[C@@H](CCCCNC(=O)c2ccc3c(c2)C(=O)OC32c3ccc(O)cc3Oc3cc(O)ccc32)C(=O)N[C@H](CCCCNC(=O)CCCC[C@@H]2SC[C@@H]3NC(=O)N[C@@H]32)C(=O)O)NC(=O)[C@H](CO)NC(=O)[C@H](Cc2c[nH]c3ccccc23)NC(=O)[C@H](CCC(N)=O)NC(=O)[C@H](C)N(C)C(=O)[C@H](Cc2ccc(O)cc2)NC(=O)[C@H](CCC(=O)O)NC(=O)[C@H](Cc2ccc(O)cc2)NC(=O)[C@H](C)N(C)C(=O)[C@H](Cc2ccc(O)cc2)NC(=O)[C@H](Cc2ccccc2)NC1=O` [biotinylated peptide] (MFY[NMeA]YEY[NMeA]QWSKK(5FAM)[dK](Biotin)-OH; linker N-12 via Glutaryl; C-terminus assumed) as the compound, how does the bioavailability [3] read?
A: 9.4%

Q: And the “time of maximal uptake” value ([3]; po)?
A: 3 h

Q: What about the oral uptake efficiency ([3]; po) of the same compound?
A: 6.4%

Q: With `CCCCCC/C=C\CCCCCCCC(=O)NCCCC[C@@H](NC(=O)[C@H](CCCCNC(=O)c1ccc2c(c1)C(=O)OC21c2ccc(O)cc2Oc2cc(O)ccc21)NC(=O)[C@@H]1CCCCNC(=O)CCCC(=O)N[C@@H](CCSC)C(=O)N[C@@H](Cc2ccccc2)C(=O)N[C@@H](Cc2ccc(O)cc2)C(=O)N(C)[C@@H](C)C(=O)N[C@@H](Cc2ccc(O)cc2)C(=O)N[C@@H](CCC(=O)O)C(=O)N[C@@H](Cc2ccc(O)cc2)C(=O)N(C)[C@@H](C)C(=O)N[C@@H](CCC(N)=O)C(=O)N[C@@H](Cc2c[nH]c3ccccc23)C(=O)N[C@@H](CO)C(=O)N1)C(=O)O` [FA-cycSUPR] (MFY[NMeA]YEY[NMeA]QWSKK(5FAM)[dK](Palmitoleoyl)-OH; linker N-12 via Glutaryl) as the compound, how does the bioavailability [3] read?
A: 9.8%

Q: And the oral uptake efficiency ([3]; po)?
A: 9.4%

Q: And the half-life [4]?
A: 1100 min

Q: And the “fold increase in in vivo half-life over cycGIBP” value [5]?
A: 354 fold

Q: What does the source list for `CCC[C@H]1C(=O)N(C)[C@@H](CCC)C(=O)N[C@@H](CC(C)C)C(=O)N[C@@H](Cc2ccc(O)cc2)C(=O)N[C@@H](CC(=O)O)C(=O)N[C@@H](CC(=O)O)C(=O)N[C@H](C(N)=O)CCCCNC(=O)CCCC(=O)N[C@@H](CCSC)C(=O)N[C@@H](C(C)C)C(=O)N[C@@H](CS)C(=O)N1C` [Peptide D] (MVC[NMeNva][NMeNva]LYDDK-NH2; linker N-10 via Glutaryl (inferred); C-terminus assumed)?
A: fold improvement with respect to parental molecule ([6]; EC50/IC50 ratio, peptide 1 vs HRAP, peptide D vs ANHP): ~110 fold; proliferation relative to untreated cells (maximal effect) ([6]; concentrations significantly above the EC50): 56%

Q: For “insulin: unmodified human insulin [reference compound]”, which “effect on blood sugar” value [2] is on record?
A: no effect on blood sugar

Q: What does the source list for `O=C(O)CCCC[C@@H]1SC[C@@H]2NC(=O)N[C@@H]21` [biotin]?
A: intestinal absorption efficiency ([7]; Zempleni and Mock (1999)): ~100%; oral bioavailability [7]: ~100%

Q: Which half-life [4] does the source give for `CC[C@H](C)[C@@H]1NC(=O)[C@H](CCSC)NC(=O)CCCC(=O)NCCCC[C@@H](C(N)=O)NC(=O)[C@H]([C@@H](C)O)NC(=O)CNC(=O)[C@H](C)NC(=O)[C@H](C(C)C)NC(=O)[C@H](Cc2ccccc2)NC(=O)[C@H](CCC(=O)O)NC(=O)[C@H](Cc2ccc(O)cc2)NC(=O)[C@H](Cc2c[nH]c3ccccc23)NC(=O)[C@H]([C@@H](C)O)NC1=O` [cycGIBP, reference compound] (MITWYEFVAGTK-NH2; linker N-12 via Glutaryl) here?
A: 3.1 min

Q: For `CCCCCC/C=C\CCCCCCCC(=O)O` [palmitoleic acid], which oral bioavailability [7] is on record?
A: ~100%

Q: With `CC[C@H](C)[C@@H]1NC(=O)[C@H](CCSC)NC(=O)CCCC(=O)NCCCC[C@@H](C(N)=O)NC(=O)[C@H]([C@@H](C)O)NC(=O)CNC(=O)[C@H](C)NC(=O)[C@H](C(C)C)NC(=O)[C@H](Cc2ccccc2)NC(=O)[C@H](CCC(=O)O)NC(=O)[C@H](Cc2ccc(O)cc2)NC(=O)[C@H](Cc2c[nH]c3ccccc23)NC(=O)[C@H]([C@@H](C)O)NC1=O` [cycGIBP] (MITWYEFVAGTK-NH2; linker N-12 via Glutaryl) as the compound, how does the “Vmax” value [8] read?
A: 37 nmol/s

Source: US20180312539A1, “METHODS FOR PREPARING HIGH THROUGHPUT PEPTIDOMIMETICS, ORALLY BIOAVAILABLE DRUGS AND COMPOSITIONS CONTAINING SAME” (University of Southern California, priority 2011, published 2018)
